Efficacy data for two compounds are collected here from patent publication US20220265694A1, “COMPOSITIONS AND METHODS FOR TREATING AN INFECTION” (CMPD LICENSING, LLC, priority 2016, published 2022).

Like-named read-outs stand apart in the source and are kept apart here.

One assay has as its system Neisseria meningitidis. Put plainly: Expected efficacy of antibiotic agents. The settings on record: expected efficacy against Neisseria meningitidis; Gram: neg.
Assay [1] has as its system Methicillin resistant staph aureus (MRSA). Put plainly: Expected efficacy of antibiotic agents. Conditions: expected efficacy against Methicillin resistant staph aureus (MRSA); Gram: pos.
A further assay deals with Acinetobacter lwoffii. Put plainly: Expected efficacy of antibiotic agents. The settings on record: expected efficacy against Acinetobacter lwoffii; Gram: neg.
For the next assay, the system named is Shigella flexneri. Put plainly: Expected efficacy of antibiotic agents. The settings on record: expected efficacy against Shigella flexneri; Gram: neg.
For another assay, the system named is Providencia rettgeri. Put plainly: Expected efficacy of antibiotic agents. Conditions: expected efficacy against Providencia rettgeri; Gram: neg.
In assay [2] the test system is Corynebacterium urealyticum. Put plainly: Expected efficacy of antibiotic agents. The settings on record: expected efficacy against Corynebacterium urealyticum; Gram: pos.
The next assay has as its system Diphtheroids. Put plainly: Expected efficacy of antibiotic agents. Conditions: expected efficacy against Diphtheroids; Gram: pos.
Assay [3] concerns Staphylococcus epidermidis. Put plainly: Expected efficacy of antibiotic agents. Conditions: expected efficacy against Staphylococcus epidermidis; Gram: pos.
Assay [4] deals with Viridans group streptococci. Put plainly: Expected efficacy of antibiotic agents. The settings on record: expected efficacy against Viridans group streptococci; Gram: pos.
Another assay deals with Escherichia coli. The experiment in a line: Expected efficacy of antibiotic agents. The settings on record: expected efficacy against Escherichia coli; Gram: neg.
Assay [5] concerns Acinetobacter calcoaceticus. Put plainly: Expected efficacy of antibiotic agents. The settings on record: expected efficacy against Acinetobacter calcoaceticus; Gram: neg.
A further assay relates to Neisseria gonorrhoeae. The experiment in a line: Expected efficacy of antibiotic agents. The settings on record: expected efficacy against Neisseria gonorrhoeae; Gram: neg.
For the next assay, the system named is Enterobacter cloacae. Put plainly: Expected efficacy of antibiotic agents. The settings on record: expected efficacy against Enterobacter cloacae; Gram: neg.
For the next assay, the system named is Bartonella bacilliformis. The experiment in a line: Expected efficacy of antibiotic agents. Conditions: expected efficacy against Bartonella bacilliformis; Gram: neg.
Another assay relates to Pseudomonas fluorescens. The experiment in a line: Expected efficacy of antibiotic agents. Conditions: expected efficacy against Pseudomonas fluorescens; Gram: neg.

Regarding `CO/N=C(\C(=O)N[C@@H]1C(=O)N2C(C(=O)O)=C(CSc3nc(=O)c(=O)[nH]n3C)CS[C@H]12)c1csc(N)n1` [Ceftriaxone], the Efficacy result in the assay with Neisseria meningitidis was “yes”; in assay [1], “no”; with Acinetobacter lwoffii, “no”; in the assay with Shigella flexneri, “yes”; in the assay with Providencia rettgeri, “yes”; in assay [2] it was “no”. The Efficacy entry is reported as “no” in the assay on Diphtheroids; “yes” in [3]; “yes” in [4]; “yes” in the assay on Escherichia coli; “no” in assay [5]; “yes” with Neisseria gonorrhoeae. For the same compound, the Efficacy result in the assay with Legionella pneumophila (expected efficacy against Legionella pneumophila, Gram: neg) is “no”; in the assay with Enterobacter cloacae it was “yes”.

In the case of `CN[C@H](CC(C)C)C(=O)N[C@H]1C(=O)N[C@@H](CC(N)=O)C(=O)N[C@H]2C(=O)N[C@H]3C(=O)N[C@H](C(=O)N[C@H](C(=O)O)c4cc(O)cc(O)c4-c4cc3ccc4O)[C@H](O)c3ccc(c(Cl)c3)Oc3cc2cc(c3O[C@@H]2O[C@H](CO)[C@@H](O)[C@H](O)[C@H]2O[C@H]2C[C@](C)(N)[C@H](O)[C@H](C)O2)Oc2ccc(cc2Cl)[C@H]1O` [Vancomycin], the Efficacy result is recorded as “no” in the assay with Neisseria meningitidis; “yes” in [1]; “no” in the assay with Acinetobacter lwoffii; “no” in the assay on Shigella flexneri; “no” with Providencia rettgeri; “yes” in assay [2]. Besides, the Efficacy entry is “yes” with Diphtheroids; “yes” in [3]; “no” in the assay on Bartonella bacilliformis; “yes” in assay [4]; “no” in the assay on Escherichia coli; “no” in assay [5]. The Efficacy result in the assay with Neisseria gonorrhoeae, in the assay with Pseudomonas fluorescens, in the assay on Legionella pneumophila, with Brucella species and in the assay on Enterobacter cloacae was “no” in each case.
